# Assays:
# TG2 [1] = target: T1, TG2 (Homo sapiens, UniProt P21980); experiment: BODIPY FL GTP-γ-S binding assay; conditions: NC9 120 μM, VA4 40 μM, VA5 40 μM; plus 0.5 mM CaCl2; 1 μM GTP-γ-S FL BODIPY
# T1 sequence (P21980 1-687): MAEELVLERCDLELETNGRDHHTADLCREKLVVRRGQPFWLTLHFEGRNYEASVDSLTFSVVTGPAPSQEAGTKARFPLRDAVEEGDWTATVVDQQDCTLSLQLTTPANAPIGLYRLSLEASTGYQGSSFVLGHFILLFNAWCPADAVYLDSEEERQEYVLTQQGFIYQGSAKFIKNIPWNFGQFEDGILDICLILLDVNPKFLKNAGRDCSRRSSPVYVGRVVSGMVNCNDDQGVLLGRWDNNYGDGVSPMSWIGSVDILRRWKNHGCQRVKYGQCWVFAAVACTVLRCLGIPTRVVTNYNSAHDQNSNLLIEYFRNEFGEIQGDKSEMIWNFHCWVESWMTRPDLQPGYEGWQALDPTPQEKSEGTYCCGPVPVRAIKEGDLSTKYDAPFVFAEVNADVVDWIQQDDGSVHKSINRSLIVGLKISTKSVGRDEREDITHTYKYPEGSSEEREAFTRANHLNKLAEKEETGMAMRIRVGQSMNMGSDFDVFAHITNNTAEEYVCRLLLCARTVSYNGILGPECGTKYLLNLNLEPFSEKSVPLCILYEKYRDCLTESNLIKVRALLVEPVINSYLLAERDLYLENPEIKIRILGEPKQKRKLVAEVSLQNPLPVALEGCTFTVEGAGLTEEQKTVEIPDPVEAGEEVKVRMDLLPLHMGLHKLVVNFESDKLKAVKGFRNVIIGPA
# Description: BODIPY FL GTP-γ-S binding assay. GTP binding was performed using a similar method as reported previously (McEwen, D. P. et al., Anal. […] TG2 (9 μg) was incubated with BODIPY GTP-γ-S at 25° C. for 10 min in 100 mM MOPS (pH=7.0) and 5 mM MgCl2 followed by addition of H2O, inhibitor alone or inhibitor plus 0.5 mM CaCl2. […] After 45 min incubation, fluorescence was then measured on a microplate reader (ex: 490 nm, em: 520 nm).
# purified human TG2 = target: T2, purified human TG2 (Homo sapiens, UniProt P21980); experiment: Native PAGE of TG2 conformation; format: biochemical; conditions: NC9 120 μM, VA4 40 μM, VA5 40 μM with calcium, 90 min
# T2 sequence (P21980 1-687): T1 sequence (P21980 1-687)
# Description: Following this incubation, samples were run on polyacrylamide gel under non-denaturing conditions and in the presence of […] and magnesium. The gel was Coomassie stained and a picture of the gel is shown.
# Native PAGE. Native gel electrophoresis experiments were performed using a method similar to those described previously (Begg, G. E. et al., Proc. Natl. Acad. Sci. U.S.A. 103: 19683-19688, 2006; Pinkas, D. M. et al., PLoS Biol. 5: e327, 2007). Briefly, TG2 or inhibited TG2 (2.5 μM) was incubated for 1.5 h at room temperature in pre-incubation buffer (50 mM Tris, 5 mM DTT, 0.5 mM EDTA) at pH 7.0 with or without 100 μM GTP/1.0 mM MgCl2 or 5.0 mM CaCl2. Laemmli native loading buffer was added (1:1) and 1.5 μg of TG2 was loaded onto a 4-20% Tris-HCl ReadyGel (Bio-Rad) using Tris-glycine as the running buffer with 100 μM GTP/1.0 mM MgCl2. For 90 min, 120 V was applied at 4° C. The gel was stained with 0.5% Coomassie brilliant blue R-250 in 40% methanol/10% acetic acid and destained in 10% methanol/10% acetic acid.
# TG2 [2] = target: T1, TG2; experiment: Inhibitor modulation of recombinant TG2 conformation (native gel); format: biochemical; design: made in house; conditions: 500 μM inhibitor 1 h, then 0 or 500 μM GTP
# Description: Inhibitor modulation of recombinant TG2 conformation. Recombinant TG2 protein was prepared in the Center for Biomolecular Therapeutics by Dr. Eric Toth (University of Maryland School of Medicine). […] In some experiments, inhibitor and GTP were added simultaneously. Laemmli native loading buffer was added, and 6 μg of protein was electrophoresed on a native 4% to 6% acrylamide gel and electrophoresed at 125 V for 45 min at 4° C. using Tris-glycine running buffer (Pinkas, D. M. et al., PLoS Biol 5:e327, 2007; Begg, G. E. et al., Proc. Natl. Acad. Sci. USA 103:19683-8, 2006). The gel was subsequently fixed in 40% methanol/10% acetic acid for 30 min, stained 30 minutes with 0.25% Coomassie R-250, destained overnight with 10% methanol/10% acetic acid and photographed.
SMILES,GTP binding to TG2 (TG2 [1]),conformation of inhibitor-bound TG2 (purified human TG2),"recombinant TG2 conformation, pre-incubation with inhibitor (TG2 [2])"
C=CC(=O)NCCCC[C@H](NC(=O)OCc1ccccc1)C(=O)NCCOCCOCCNS(=O)(=O)c1cccc2c(N(C)C)cccc12 [NC9],inhibit GTP binding to TG2 almost completely,open conformation,shifted TG2 from the closed to extended conformation and that this was not reversed by GTP addition
"C=CC(=O)NCCCC[C@H](NC(=O)OCc1ccccc1)C(=O)N1CCN(S(=O)(=O)c2cccc3c(N(C)C)cccc23)CC1 [VA4, (S)-benzyl(6-acrylamido-1-(4-((5-(dimethylamino)naphthalen-1-yl)sulfonyl)piperazin-1-yl)-1-oxohexan-2-yl)carbamate]",inhibit GTP binding to TG2 almost completely,open conformation,shifted TG2 from the closed to extended conformation and that this was not reversed by GTP addition
"C=CC(=O)NCCCC[C@H](NC(=O)OCc1ccccc1)C(=O)N1CCN(C(=O)c2cc3ccc(O)cc3oc2=O)CC1 [VA5, (S)-Benzyl(6-acrylamido-1-(4-(7-hydroxy-2-oxo-2H-chromene-3-carbonyl)piperazin-1-yl)-1-oxohexan-2-yl)carbamate]",inhibit GTP binding to TG2 almost completely,open conformation,shifted TG2 from the closed to extended conformation and that this was not reversed by GTP addition

# Reference: US10894777B2, “TG2 inhibitor piperazine compounds and uses thereof” (UNIVERSITY OF OTTAWA, priority 2016, dated 2021)
